# Calls of active or inactive are those of the source. No cut-off for these calls is given here.
# Legend:
# [1] = tested on: HepG2; assay: Induction of apoptosis in human HepG2 cells assessed as viable cells at 0.4 uM measured after 48 hrs by Annexin V-FITC/propidium iodide staining based flow cytometry (reference value: 94.5%); type: functional; conditions: read-out: Activity
# [2] = biological target: ADP-ribosylation factor 1 (Homo sapiens) (UniProt P84077); assay: Binding affinity to Arf1 in human HepG2 cell lysate assessed as change in denaturation temperature at 25 uM measured after 3 mins by CETSA; type: subcellular
# ADP-ribosylation factor 1 (Homo sapiens), sequence (P84077 whole entry): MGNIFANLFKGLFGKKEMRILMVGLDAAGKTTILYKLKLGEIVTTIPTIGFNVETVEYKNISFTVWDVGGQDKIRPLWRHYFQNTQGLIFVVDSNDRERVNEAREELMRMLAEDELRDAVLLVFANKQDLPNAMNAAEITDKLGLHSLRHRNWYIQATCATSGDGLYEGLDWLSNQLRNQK
# [3] = Acute toxicity in ICR mouse assessed as change in ALP level at 100 mg/kg, ip measured after 6 days; type: organism-based; conditions: in vivo, 144 h, time 6 day
# [4] = Acute toxicity in ICR mouse assessed as pathological change in lung at 100 mg/kg, ip measured after 6 days; type: organism-based; conditions: in vivo, 144 h, time 6 day
# [5] = Acute toxicity in ICR mouse assessed as change in creatine kinase level at 100 mg/kg, ip measured after 6 days; type: organism-based; conditions: in vivo, 144 h, time 6 day
# [6] = tested on: HepG2; assay: Antiproliferative activity against human HepG2 cells measured after 72 hrs by MTT assay; type: functional, cell-based; conditions: HepG2, 72 h
# [7] = Acute toxicity in ICR mouse assessed as change in urea level at 100 mg/kg, ip measured after 6 days; type: organism-based; conditions: in vivo, 144 h, time 6 day
# [8] = tested on: HepG2; assay: Induction of apoptosis in human HepG2 cells assessed as necrotic cells at 0.2 uM measured after 48 hrs by Annexin V-FITC/propidium iodide staining based flow cytometry (reference value: 2.04%); type: functional
# [9] = Selectivity index, ratio of IC50 for human L02 cells to IC50 for human HepG2 cells; type: toxicity; conditions: L02 cells and HepG2 cells, read-out: Ratio IC50
# [10] = tested on: Bel-7402; assay: Cell cycle arrest in human Bel-7402 cells assessed as accumulation at G1 phase at 1 uM measured after 24 hrs by propidium iodide staining based flow cytometry (reference value: 38.72%); type: functional
# [11] = tested on: HepG2; assay: Induction of apoptosis in human HepG2 cells assessed as chromatin shrinkage at 0.2 to 0.8 uM measured after 48 hrs by Hoechst 33342 staining based fluorescence microscopy; type: functional, cell-based; conditions: dose 0.2-0.8 µM
# [12] = tested on: Bel-7402; assay: Antiproliferative activity against human Bel-7402 cells measured after 72 hrs by MTT assay; type: functional, cell-based; conditions: Bel-7402, 72 h
# [13] = tested on: HepG2; assay: Induction of apoptosis in human HepG2 cells assessed as viable cells at 0.2 uM measured after 48 hrs by Annexin V-FITC/propidium iodide staining based flow cytometry (reference value: 94.5%); type: functional; conditions: read-out: Activity
# [14] = tested on: HepG2; assay: Induction of apoptosis in human HepG2 cells assessed as early apoptotic cells at 0.4 uM measured after 48 hrs by Annexin V-FITC/propidium iodide staining based flow cytometry (reference value: 1.81%); type: functional
# [15] = tested on: HepG2; assay: Antitumor activity against human HepG2 cells xenografted in BALB/c nude mouse assessed as reduction in Ki-67 expression at 5 to 10 mg/kg, ip administered once daily for 16 days measured post-last dose by immunohistochemical analysis; type: functional, organism-based; conditions: dose 5-10 mg/kg, time 16.0 day
# [16] = tested on: HepG2; assay: Antitumor activity against human HepG2 cells xenografted in BALB/c nude mouse assessed as increase in cleaved caspase-3 expression at 5 to 10 mg/kg, ip administered once daily for 16 days measured post-last dose by immunohistochemical analysis; type: functional, organism-based; conditions: dose 5-10 mg/kg, time 16.0 day
# [17] = Acute toxicity in ICR mouse assessed as pathological change in heart at 100 mg/kg, ip measured after 6 days; type: organism-based; conditions: in vivo, 144 h, time 6 day
# [18] = tested on: Bel-7402; assay: Cell cycle arrest in human Bel-7402 cells assessed as accumulation at S phase at 1 uM measured after 24 hrs by propidium iodide staining based flow cytometry (reference value: 31%); type: functional
# [19] = tested on: HepG2; assay: Induction of apoptosis in human HepG2 cells assessed as early apoptotic cells at 0.8 uM measured after 48 hrs by Annexin V-FITC/propidium iodide staining based flow cytometry (reference value: 1.81%); type: functional
# [20] = tested on: Bel-7402; assay: Cell cycle arrest in human Bel-7402 cells assessed as accumulation at G1 phase at 0.5 uM measured after 24 hrs by propidium iodide staining based flow cytometry (reference value: 38.72%); type: functional
# [21] = Volume of distribution at steady state in ICR mouse at 10 mg/kg, iv; type: ADME, organism-based; conditions: in vivo, read-out: Vdss
# [22] = tested on: HepG2; assay: Induction of apoptosis in human HepG2 cells assessed as late apoptotic cells at 0.4 uM measured after 48 hrs by Annexin V-FITC/propidium iodide staining based flow cytometry (reference value: 1.66%); type: functional
# [23] = MRT (0 to t) in ICR mouse at 10 mg/kg, iv; type: ADME, organism-based; conditions: in vivo
# [24] = tested on: HepG2; assay: Cell cycle arrest in human HepG2 cells assessed as accumulation at S phase at 0.2 uM measured after 24 hrs by propidium iodide staining based flow cytometry (reference value: 32.81%); type: functional
# [25] = tested on: HepG2; assay: Induction of apoptosis in human HepG2 cells assessed as viable cells at 0.8 uM measured after 48 hrs by Annexin V-FITC/propidium iodide staining based flow cytometry (reference value: 94.5%); type: functional; conditions: read-out: Activity
# [26] = tested on: HepG2; assay: Cell cycle arrest in human HepG2 cells assessed as accumulation at S phase at 0.4 uM measured after 24 hrs by propidium iodide staining based flow cytometry (reference value: 32.81%); type: functional
# [27] = Acute toxicity in ICR mouse assessed as body weight loss at 100 mg/kg, ip measured for 6 days; type: organism-based; conditions: in vivo, 144 h, time 6 day
# [28] = tested on: HepG2; assay: Cell cycle arrest in human HepG2 cells assessed as accumulation at G1 phase at 0.8 uM measured after 24 hrs by propidium iodide staining based flow cytometry (reference value: 42.27%); type: functional
# [29] = tested on: HepG2; assay: Induction of apoptosis in human HepG2 cells assessed as late apoptotic cells at 0.2 uM measured after 48 hrs by Annexin V-FITC/propidium iodide staining based flow cytometry (reference value: 1.66%); type: functional
# [30] = tested on: HepG2; assay: Induction of apoptosis in human HepG2 cells assessed as early apoptotic cells at 0.2 uM measured after 48 hrs by Annexin V-FITC/propidium iodide staining based flow cytometry (reference value: 1.81%); type: functional
# [31] = tested on: HepG2; assay: Antiproliferative activity against human HepG2 cells assessed as cell growth inhibition at 1 uM measured after 72 hrs by MTT assay relative to control; type: functional; conditions: read-out: GI
# [32] = tested on: PANC-1; assay: Antiproliferative activity against human PANC-1 cells measured after 72 hrs by MTT assay; type: functional, cell-based; conditions: PANC-1, 72 h
# [33] = tested on: HepG2; assay: Antitumor activity against human HepG2 cells xenografted in BALB/c nude mouse assessed as reduction in tumor weight at 5 to 10 mg/kg, ip administered once daily for 16 days measured post-last dose; type: functional, organism-based; conditions: dose 5-10 mg/kg, time 16.0 day
# [34] = Solubility of the compound in 5% DMSO and 10% Solutol HS-15 saline solution; type: physicochemical
# [35] = Acute toxicity in ICR mouse assessed as change in uric acid level at 100 mg/kg, ip measured after 6 days; type: organism-based; conditions: in vivo, 144 h, time 6 day
# [36] = tested on: HepG2; assay: Antitumor activity against human HepG2 cells xenografted in BALB/c nude mouse assessed as tumor growth inhibition at 10 mg/kg, ip administered once daily for 16 days relative to control; type: functional; conditions: HepG2, 384 h, time 16 day, read-out: TGI
# [37] = tested on: ECa-109 cell line; assay: Antiproliferative activity against human Eca-109 cells measured after 72 hrs by MTT assay; type: functional, cell-based; conditions: ECa-109, 72 h
# [38] = Acute toxicity in ICR mouse assessed as change in blood urea nitrogen level at 100 mg/kg, ip measured after 6 days; type: organism-based; conditions: in vivo, 144 h, time 6 day
smiles,measurement,setting,value
C[C@H]1CCC/C=C/[C@@H]2C[C@H](O)C[C@H]2[C@H](OC(=O)/C=C/c2ccc(N(C)C)cc2)/C=C/C(=O)O1,viability at 0.4 µM,[1],53.1%
same,Activity,[2],Active
same,Activity,[3],Non-Toxic
same,Activity,[4],Non-Toxic
same,Activity,[5],Non-Toxic
same,IC50,[6],290 nM
same,Activity,[7],Non-Toxic
same,Activity,[8],28.85%
same,selectivity ratio,[9],9.69
same,Activity,[10],54.21%
same,Activity,[11],Active
same,IC50,[12],840 nM
same,viability at 0.2 µM,[13],66.1%
same,Activity,[14],1.45%
same,Activity,[15],Active
same,Activity,[16],Active
same,Activity,[17],Non-Toxic
same,Activity,[18],19.59%
same,Activity,[19],1.49%
same,Activity,[20],51.26%
same,Vd,[21],0.852 L/kg
same,Activity,[22],3.9%
same,MRT last,[23],19.2 min
same,Activity,[24],29.24%
same,viability at 0.8 µM,[25],54.4%
same,Activity,[26],21.37%
same,Activity,[27],Toxic
same,Activity,[28],60.9%
same,Activity,[29],3.05%
same,Activity,[30],2.03%
same,inhibition of growth at 1 µM,[31],92.1%
same,IC50,[32],640 nM
same,Activity,[33],Active
same,solubility,[34],2500 µg/mL
same,Activity,[35],Non-Toxic
same,inhibition in vivo at 10 mg/kg,[36],46.2%
same,IC50,[37],1770 nM
same,Activity,[38],Non-Toxic

# — ChEMBL document CHEMBL5113500, “New brefeldin A-cinnamic acid ester derivatives as potential antitumor agents: Design, synthesis and biological evaluation” (Eur J Med Chem, 2022)
